Data from ChEMBL document CHEMBL6096732 (J Med Chem, 2025).
pIC50: −log10 of the molar value. Calls of active or inactive are those of the source. The calls are words filed in the database; no cut-off is given here.

How the values were obtained:
[1] = test system: 4T1; assay: Antitumor activity against mouse 4T1 cells implanted in female BALB/c mouse model assessed as induction of DNA damage by measuring increase in gamma-H2AX expression in tumor co-administrated orally with olaparib as once daily dose via gavage for 14 days by Western blot analysis; assay type: functional, cell-based; details: route po, time 14.0 day
[2] = test system: Mus musculus; assay: Effect on acetylated alpha-tubulin level in male C57BL/6 mouse tumor implanted with mouse B16-F10 cells at 50 mg/kg, po administered once daily via gavage for 14 days by Western blot analysis; assay type: functional, organism-based; details: time 14.0 day
[3] = Toxicity in male C57BL/6 mouse implanted with mouse B16-F10 cells assessed as body weight loss at 50 mg/kg, po administered once daily for 14 days; assay type: organism-based; details: in vivo, 336 h, time 14 day
[4] = test system: 4T1; assay: Antitumor activity against mouse 4T1 cells implanted in female BALB/c mouse model assessed as decrease in PAPR1 expression in tumor administrated orally as once daily dose via gavage for 14 days by Western blot analysis; assay type: functional, cell-based; details: route po, time 14.0 day
[5] = Toxicity in male C57BL/6 mouse implanted with mouse B16-F10 cells assessed as histopathological changes in liver at 50 mg/kg, po administered once daily for 14 days by HandE staining based microscopic analysis; assay type: organism-based; details: in vivo, 336 h, time 14 day
[6] = Toxicity in male C57BL/6 mouse implanted with mouse B16-F10 cells assessed as histopathological changes in liver at 50 mg/kg, po co-administered with NP-19 as once daily dosage via gavage for 14 days by HandE staining based microscopic analysis; assay type: organism-based; details: in vivo, 336 h, time 14 day
[7] = test system: B16-F10; assay: Effect on acetylated H3K56 expression level in mouse B16-F10 cells at 5 to 20 uM incubated for 24 hrs by Western blot analysis; assay type: functional, cell-based; details: dose 5-20 µM
[8] = test system: 4T1; assay: Downregulation of PARP1 expression in mouse 4T1 cells at 2 uM incubated for 24 hrs in presence of olaparib by Western blot analysis; assay type: functional, cell-based
[9] = test system: B16-F10; assay: Inhibition of cell migration in mouse B16-F10 cells assessed as wound area at 10 uM incubated for 24 hrs by wound healing assay (reference value: 50.36 +/- 1.68 %); assay type: functional; design: scale not given: the % may be the effect or the level left
[10] = Toxicity in male C57BL/6 mouse implanted with mouse B16-F10 cells assessed as histopathological changes in kidney at 50 mg/kg, po administered once daily for 14 days by HandE staining based microscopic analysis; assay type: organism-based; details: in vivo, 336 h, time 14 day
[11] = test system: B16-F10; assay: Inhibition of cell migration in mouse B16-F10 cells assessed as wound area at 5 uM incubated for 24 hrs by wound healing assay (reference value: 50.36 +/- 1.68 %); assay type: functional; design: scale not given: the % may be the effect or the level left
[12] = test system: 4T1; assay: Antitumor activity against mouse 4T1 cells implanted in female BALB/c mouse model assessed as induction of DNA damage by measuring increase in gamma-H2AX expression in tumor administrated orally as once daily dose via gavage for 14 days by DAPI staining based immunofluorescence analysis; assay type: functional, cell-based; details: route po, time 14.0 day
[13] = test system: B16-F10; assay: Inhibition of cell migration in mouse B16-F10 cells incubated for 24 to 48 hrs by crystal violet staining based microscopic analysis; assay type: functional; details: dose 5-20 µM, time 24-48 hrs
[14] = molecular target: Programmed cell death 1 ligand 1 (Mus musculus) (UniProt Q9EP73); assay: Induction of PD-L1 degradation in mouse B16-F10 cells assessed as decrease in PD-L1 protein level at 5 uM preincubated with MG132 for 4 hrs followed by compound addition and measured after 24 hrs by Western blot analysis; assay type: cell-based
[15] = test system: 4T1; assay: Antitumor activity against mouse 4T1 cells implanted in female BALB/c mouse model assessed as tumor growth inhibition co-administrated orally with olaparib as once daily dose via gavage for 14 days relative to control; assay type: functional; details: route po; time 14 day
[16] = molecular target: Histone deacetylase 8 (Homo sapiens, UniProt Q9BY41); assay: Inhibition of recombinant HDAC8 (unknown origin) using Boc-Lys(trifluoroacetyl)-AMC as substrate preincubated for 1 hr followed by substrate addition and measured after 2 hrs by fluorescence based micro plate reader analysis
[17] = Tmax in male Sprague-Dawley rat at 2 mg/kg, iv measured after 12 hrs by LC-MS/MS analysis; assay type: ADME, organism-based; details: in vivo
[18] = test system: B16-F10; assay: Inhibition of cell migration in mouse B16-F10 cells assessed as wound area at 20 uM incubated for 24 hrs by wound healing assay (reference value: 50.36 +/- 1.68 %); assay type: functional; design: scale not given: the % may be the effect or the level left
[19] = molecular target: Histone deacetylase 9 (Homo sapiens, UniProt Q9UKV0); assay: Inhibition of recombinant HDAC9 (unknown origin) using Boc-Lys(trifluoroacetyl)-AMC as substrate preincubated for 1 hr followed by substrate addition and measured after 2 hrs by fluorescence based micro plate reader analysis
[20] = molecular target: T1, Histone deacetylase 3 (Mus musculus) (UniProt O88895); assay: In vivo inhibition of HDAC3 in male C57BL/6 mouse model implanted with mouse B16-F10 cells assessed as increase in acetylated histone H3 level in tumor at 50 mg/kg, po administered once daily via gavage for 14 days by DAPI staining based immunofluorescence analysis; assay type: functional, organism-based; details: time 14.0 day
T1 sequence (whole entry): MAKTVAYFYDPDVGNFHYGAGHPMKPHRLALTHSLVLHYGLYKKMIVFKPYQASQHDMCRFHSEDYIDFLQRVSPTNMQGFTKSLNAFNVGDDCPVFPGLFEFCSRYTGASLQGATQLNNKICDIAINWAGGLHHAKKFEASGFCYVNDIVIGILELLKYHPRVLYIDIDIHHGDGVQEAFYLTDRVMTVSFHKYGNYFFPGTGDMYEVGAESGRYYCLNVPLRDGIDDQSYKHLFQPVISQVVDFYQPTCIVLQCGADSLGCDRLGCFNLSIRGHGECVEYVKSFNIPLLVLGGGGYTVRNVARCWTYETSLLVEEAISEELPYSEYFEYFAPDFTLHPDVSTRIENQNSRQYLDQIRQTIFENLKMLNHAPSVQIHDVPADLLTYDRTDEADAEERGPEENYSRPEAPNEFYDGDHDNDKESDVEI

[21] = test system: B16-F10; assay: Effect on acetylated alpha-tubulin expression level in mouse B16-F10 cells at 5 to 20 uM incubated for 24 hrs by Western blot analysis; assay type: functional, cell-based; details: dose 5-20 µM
[22] = test system: 4T1; assay: Downregulation of PARP1 expression in mouse 4T1 cells at 2 uM incubated for 24 hrs by Western blot analysis; assay type: functional, cell-based
[23] = test system: HCT-116; assay: cells; assay type: functional, cell-based; details: Homo sapiens, HCT-116, 72 h
Description: Antiproliferative activity against human HCT-116 cells assessed as inhibition of cell growth incubated for 72 hrs by MTT assay

[24] = test system: Mus musculus; assay: Immunomodulatory activity in male C57BL/6 mouse model implanted with mouse B16-F10 cells assessed as increase in CD3+ CD4+ T cells in tumor at 50 mg/kg, po administered once daily for 14 days by flow cytometric analysis (reference value: 3.1 %); assay type: functional; details: time 14 day
[25] = molecular target: Histone deacetylase 3 (Homo sapiens, UniProt O15379); assay: Inhibition of recombinant HDAC3 (unknown origin) using Boc-Lys(acetyl)-AMC as substrate preincubated for 1 hr followed by substrate addition and measured after 2 hrs by fluorescence based micro plate reader analysis
[26] = Clearance in male Sprague-Dawley rat at 20 mg/kg, po measured after 12 hrs by LC-MS/MS analysis; assay type: ADME, organism-based; details: in vivo
[27] = test system: B16-F10; assay: Cell cycle arrest in mouse B16-F10 cells assessed as decrease in G2/M phase population at 5 to 20 uM incubated for 48 hrs by RNase A/PI staining based flow cytometric analysis; assay type: functional; details: dose 5-20 µM
[28] = MRT (0 to infinity) in male Sprague-Dawley rat at 2 mg/kg, iv measured after 12 hrs by LC-MS/MS analysis; assay type: ADME, organism-based; details: in vivo

Histone deacetylase 8, sequence (Q9BY41 whole entry): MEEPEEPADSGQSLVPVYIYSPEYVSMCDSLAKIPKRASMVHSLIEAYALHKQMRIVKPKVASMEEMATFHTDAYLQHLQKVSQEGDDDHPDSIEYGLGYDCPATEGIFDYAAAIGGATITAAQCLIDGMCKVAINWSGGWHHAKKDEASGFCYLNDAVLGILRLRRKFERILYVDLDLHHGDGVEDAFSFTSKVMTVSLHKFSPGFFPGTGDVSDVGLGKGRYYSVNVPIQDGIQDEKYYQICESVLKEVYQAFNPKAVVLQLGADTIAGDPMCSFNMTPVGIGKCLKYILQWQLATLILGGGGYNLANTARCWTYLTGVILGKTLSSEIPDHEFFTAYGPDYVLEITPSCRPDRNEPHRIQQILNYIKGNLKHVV
Histone deacetylase 9, sequence (Q9UKV0 whole entry): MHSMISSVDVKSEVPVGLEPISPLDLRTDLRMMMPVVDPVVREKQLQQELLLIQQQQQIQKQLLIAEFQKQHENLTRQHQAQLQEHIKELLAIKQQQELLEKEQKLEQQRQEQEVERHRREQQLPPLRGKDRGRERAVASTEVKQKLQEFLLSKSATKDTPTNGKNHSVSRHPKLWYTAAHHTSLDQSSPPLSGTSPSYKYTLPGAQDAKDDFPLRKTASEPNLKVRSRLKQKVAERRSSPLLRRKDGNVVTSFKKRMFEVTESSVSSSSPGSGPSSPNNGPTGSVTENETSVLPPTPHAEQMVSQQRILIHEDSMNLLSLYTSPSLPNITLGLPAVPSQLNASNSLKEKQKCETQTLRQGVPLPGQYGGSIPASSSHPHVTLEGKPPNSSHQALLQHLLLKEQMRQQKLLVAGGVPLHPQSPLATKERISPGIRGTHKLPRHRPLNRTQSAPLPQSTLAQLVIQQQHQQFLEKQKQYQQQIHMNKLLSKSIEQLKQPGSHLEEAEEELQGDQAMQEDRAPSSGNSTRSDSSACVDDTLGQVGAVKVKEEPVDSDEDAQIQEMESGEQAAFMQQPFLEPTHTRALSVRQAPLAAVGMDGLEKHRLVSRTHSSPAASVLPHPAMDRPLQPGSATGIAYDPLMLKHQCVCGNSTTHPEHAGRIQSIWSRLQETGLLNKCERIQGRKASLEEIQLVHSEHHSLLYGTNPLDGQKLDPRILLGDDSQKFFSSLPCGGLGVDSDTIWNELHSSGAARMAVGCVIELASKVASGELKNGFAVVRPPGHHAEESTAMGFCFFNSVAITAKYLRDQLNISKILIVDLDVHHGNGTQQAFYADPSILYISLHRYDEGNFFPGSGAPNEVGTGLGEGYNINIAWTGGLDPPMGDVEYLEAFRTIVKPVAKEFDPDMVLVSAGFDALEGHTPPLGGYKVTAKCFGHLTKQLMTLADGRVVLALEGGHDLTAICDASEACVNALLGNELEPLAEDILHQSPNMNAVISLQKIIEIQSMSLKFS
Histone deacetylase 3, sequence (O15379 whole entry): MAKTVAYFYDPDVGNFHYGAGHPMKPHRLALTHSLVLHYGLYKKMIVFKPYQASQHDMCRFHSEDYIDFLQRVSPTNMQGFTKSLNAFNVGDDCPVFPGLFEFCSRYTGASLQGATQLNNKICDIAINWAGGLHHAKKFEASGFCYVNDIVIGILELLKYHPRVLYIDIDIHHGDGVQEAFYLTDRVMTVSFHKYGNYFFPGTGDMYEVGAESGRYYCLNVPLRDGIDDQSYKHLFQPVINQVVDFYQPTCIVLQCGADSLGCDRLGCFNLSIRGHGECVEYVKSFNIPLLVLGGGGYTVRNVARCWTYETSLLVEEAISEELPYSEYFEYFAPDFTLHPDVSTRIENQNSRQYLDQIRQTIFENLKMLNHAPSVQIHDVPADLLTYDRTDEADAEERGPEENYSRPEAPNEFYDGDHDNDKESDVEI
Programmed cell death 1 ligand 1 (Mus musculus), sequence (Q9EP73 whole entry): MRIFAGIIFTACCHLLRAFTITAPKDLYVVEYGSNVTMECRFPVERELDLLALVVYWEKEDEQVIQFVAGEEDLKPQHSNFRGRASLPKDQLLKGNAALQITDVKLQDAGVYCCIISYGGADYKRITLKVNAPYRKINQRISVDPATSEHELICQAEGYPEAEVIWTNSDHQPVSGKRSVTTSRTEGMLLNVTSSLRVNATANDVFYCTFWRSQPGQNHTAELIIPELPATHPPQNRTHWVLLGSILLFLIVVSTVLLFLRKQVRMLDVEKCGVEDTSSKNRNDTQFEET

In the case of CCCNNC(=O)c1ccc(Cn2c3ccccc3c3c(-c4ccccn4)nc4ccccc4c32)cc1, the Activity [1] was “Active”, the Activity [2] was “inactive” and the Activity [3] was “Non-toxic”. The Activity [4] was “Active”, the Activity [5] was “Non-toxic” and the Activity [6] was “Non-toxic”. For the same compound, the Activity [7] was “inactive”, the Activity [8] was “Active” and the Activity [9] was 10.25%. For the same compound, the Activity [10] was “Non-toxic”, the Activity [11] was 35.33% and the Activity [12] was “Active; Comparable To The Effect Of Olaparib”. The inhibition [13] was “Dose-dependent-effect”, the Activity [14] was “Active” and the TGI [15] was 91%. For the same compound, the pIC50 [16] was under 5.00, the Tmax [17] was 4.98 min and the Activity [18] was 5.9%. For the same compound, the pIC50 [19] was under 5.00, the inhibition [20] was “Active” and the Activity [21] was “inactive”. For the same compound, the Activity [22] was “Active”, the pIC50 [23] was 5.17 and the Activity [24] was 22%. For the same compound, the pIC50 [25] was 7.38, the CL/F [26] was 41.1 mL/min/kg and the Activity [27] was “Active”. For the same compound, the MRT inf [28] was 44.5 min.
